# According to US10639345B2, “Compositions for preserving photoreceptor cells, retinal pigment epithelial cells, or visual function” (Massachusetts Eye and Ear Infirmary, priority 2010, dated 2020):
# Where a SMILES comes first, the peptide text is derived from it. The star is where a group is joined. Cbz = O=C(OCc1ccccc1)*; CH2F = FC*
# Columns and labels:
# [1] = test system: AIF; assay: AIF nuclear translocation (AIF/TUNEL double staining) after retinal detachment; assay type: in vivo; conditions: three days after retinal detachment
# Protocol: Immunohistochemistry (IHC) was performed as previously reported (Murakami Y et al. (2008) AM J PATHOL 173:1326-1338). Rabbit anti-AIF antibody (1:100; Cell Signaling Technology, Danvers, Mass.) was used as the primary antibody. The specimens were imaged by confocal microscopy using the Leica HCX APOL40× lens.
# (§1) Immunofluorescence was performed as previously reported (Hisatomi et al. (2008) J CLIN INVEST 118:2025-2038. The enucleated eyes were frozen in OCT compound (Sakura Finetechnical Co., Tokyo, Japan). Five μm-thick sections were cut, air dried and fixed in cold acetone for 10 minutes. Rabbit anti-AIF antibody (1:100; Cell Signaling Technology, Danvers, Mass.) was used as the primary antibody and incubated at 4° C. overnight. A non-immune serum was used as a negative control. Alexa Fluor 488-conjugated goat anti-rabbit IgG was used as the secondary antibody and incubated at room temperature for one hour. The specimens were imaged by confocal microscopy using the Leica HCX APOL40× lens.
# Apoptosis-inducing factor (AIF) is a caspase-independent inducer of cell death, which is released from the mitochondria and translocates into the nuclei during cell death (Susin S A et al. (1999) NATURE 397:441-446). […]
# [2] = test system: photoreceptors; assay: TEM quantification of apoptotic and necrotic photoreceptor death after retinal detachment; assay type: in vivo; conditions: day three after retinal detachment, ONL
# Protocol: The morphology of photoreceptors after retinal detachment was examined by transmission electron microscopy (TEM) and propidium iodide (PI) staining and the effect of treatment with Z-VAD and/or a Nec-1 compound of Formula I-C was analyzed.
# (§2) TEM was performed as previously described (Hisatomi T et al. (2008). J. CLIN. INVEST. 118:2025-2038). […] Over 200 photoreceptors each eye were photographed and subjected to quantification of cell death modes in a masked fashion. Photoreceptors showing cellular shrinkage and nuclear condensation were defined as apoptotic cells, while photoreceptors associated with cellular and organelle swelling and discontinuities in nuclear and plasma membrane were defined as necrotic cells. The presence of electron-dense granular materials were reported to occur subsequent to both apoptotic and necrotic cell death and cells with these findings were labeled simply as end-stage cell death/unclassified (Hisatomi T et al. (2003) AM. J. PATHOL. 162:1869-1879; Erickson P A et al. (1983) INVEST. OPHTHALMOL. VIS. SCI. 24:927-942).
# On day three after retinal detachment, photoreceptor death caused by apoptosis was almost twice that caused by necrosis in vehicle-treated retina (% apoptotic cells: 21.7±1.3%, necrotic cells: 13.3±1.0%, unclassified: 4.4±1.4%; FIGS. 7A and 7E).
# [3] = test system: CD11b-positive macrophage/microglia; assay: CD11b immunofluorescence after retinal detachment in WT mice; assay type: in vivo
# Protocol: as §1, with “Rat anti-CD11b (1:50; BD Biosciences, San Diego, Calif.)” for “Rabbit anti-AIF antibody (1:100; Cell Signaling Technology, Danvers, Mass.)”, “nonimmune” for “non-immune”, “594-conjugated” for “488-conjugated”, “anti-rat” for “anti-rabbit”, “IgG (Invitrogen, Carlsbad, Calif.)” for “IgG”
# FIG. 11C-D show immunofluorescence for CD11b (FIG. 11C) and quantification of CD11b-positive macrophage/microglia (FIG. 11D) in WT and RIP-3−/− retina after retinal detachment.
# [4] = test system: photoreceptors; assay: TUNEL-positive photoreceptors in ONL after experimental retinal detachment; assay type: in vivo, rat; conditions: day three after retinal detachment; subretinal Z-VAD 300 μM and/or Nec-1 400 μM at detachment
# [5] = test system: photoreceptors; assay: TEM quantification of photoreceptor death after retinal detachment in WT mice; assay type: in vivo; conditions: day three after retinal detachment
# Protocol: as §2
# (§3) The morphology of the RIP-3−/− retina after retinal detachment was also assessed by TEM. […] RIP-3 deficiency inhibits the switch to necrotic cell death by Z-VAD treatment and prevents photoreceptor death after retinal detachment. Scale bar, 5 μm.
# [6] = test system: photoreceptors; assay: TEM quantification of photoreceptor death after retinal detachment in RIP-3−/− mice; assay type: in vivo; conditions: day three after retinal detachment
# Protocol: as §2, §3
# [7] = test system: Fas-L; assay: Fas ligand expression after retinal detachment (real-time PCR); assay type: in vivo; conditions: compared to vehicle treatment
# Protocol: Total RNA extraction and reverse transcription were performed as previously reported (Nakazawa T et al. (2006) MOL VIS 12:867-878; Hisatomi T et al. (2008). J CLIN INVEST 118:2025-2038). A real-time PCR assay was performed with Prism 7700 Sequence Detection System (Applied Biosystems, Foster City, Calif.). TaqMan Gene Expression assays were also used to check the expression of MCP-1 (Rn00580555_m1), TNF-α (Rn99999017_m1), and Fas-L (Rn00563754_m1). For relative comparison of each gene, the Ct value of real-time PCR data was analyzed with the ΔΔCt method and normalized by an endogenous control (18S ribosomal RNA).
# TNF-α and Fas-L are potent inducer of programmed necrosis as well as apoptosis (Degterev A (2005) NAT CHEM BIOL 1:112-119). The effectiveness of a TNF-α blockade after retinal detachment was measured. […] However, other factors may also contribute to photoreceptor death, as the effect of TNF-α blockade was not as effective as that of Nec-1+Z-VAD treatment. Further, Fas ligand expression increased in Z-VAD-treated retina after retinal detachment compared to vehicle treatment (FIG. 12C), and may play a role in promoting necrotic photoreceptor death in Z-VAD-treated eyes.
smiles,measurement,setting,value
"COC(=O)CC(NC(=O)C(C)NC(=O)C(NC(=O)OCc1ccccc1)C(C)C)C(=O)CF (stereo not drawn) [Z-VAD, Benzyloxycarbonyl-Val-Ala-Asp(OMe)-fluoromethylketone] (Cbz-Val-Ala-Asp(OMe)-CH2F; configuration not given here)",AIF/TUNEL-double positive cells (AIF nuclear translocation),[1],1021.9±233.9 cells/mm^2
same,% apoptotic cells (TEM),[2],11.4±1.2%
same,% necrotic cells (TEM),[2],21.9±2.3%
same,"% unclassified (end-stage cell death, TEM)",[2],5.6±1.4%
same,infiltration of CD11b-positive cells (immunofluorescence),[3],significantly increased infiltration
same,number of TUNEL-positive cells in the ONL,[4],1134.7±297.5 cells/mm^2
same,% apoptotic cells (TEM),[5],13.3±1.5%
same,% necrotic cells (TEM),[5],22.1±1.0%
same,% unclassified (TEM),[5],1.0±0.6%
same,% apoptotic cells (TEM),[6],4.8±1.3%
same,% necrotic cells (TEM),[6],6.4±1.3%
same,% unclassified (TEM),[6],0.9±0.4%
same,Fas ligand expression,[7],increased
